# From US4525475A, “Prevention of thrombolic disorder with imidazole derivatives and salts thereof” (priority 1979, dated 1985)
# Where two headings read alike, the source gives them in different places.
# What was measured:
# [1] = system: enzymic conversion of the endoperoxides (PGG2 and PGH2) to thromboxane A2 by platelet microsomes; details: Moncada et al., Prostaglandins, 13/4, 611-618, 1977; cited from earlier work
# PGE, PGF and PGD = assay: Selectivity: amount of PGE, PGF and PGD produced, measured in a similar manner to the thromboxane test; format: biochemical, horse; design: key: 0: no selectivity; +: low selectivity; ++: medium selectivity; +++: high selectivity; ++++: exceptionally high selectivity; details: greater selectivity = more anti-aggregating prostaglandins produced
# Description: (§1) Horse platelets were prepared from whole horse blood by differential centrifugation. Approximately 10^6 platelets were homogenised in 1 ml 100 mM Tris buffer pH 7.4. Various concentrations of active compound were added and the reaction sets incubated for 5 minutes at ambient temperature. To each tube was added 20 nM of arachidonic acid containing 10^6 disintegrations per minute (DPM) of labelled arachidonic acid and the tubes incubated for 3 minutes at 37° C. in a shaking water bath. After incubation the radioactive products were extracted from the acidified aqueous phase with ethyl acetate and after concentration resolved by thin layer chromatography on silica gel with chloroform/methanol/acetic acid/water (90:8:1:0.8) as a developing solvent. The amount of thromboxane produced was measured by scraping the radioactive zone corresponding to thromboxane B2 and estimating the radioactivity in a liquid scintillation counter.
# The selectivity of the active compounds was measured in a similar manner to that described above and the amount of PGE, PGF and PGD produced was determined. The greater the selectivity, the more of the anti-aggregating prostaglandins are produced.
# The ED50 and Selectivity results are shown in Table A in which 0 indicates no selectivity; +low selectivity; ++medium selectivity; +++high selectivity: ++++exceptionally high selectivity; ND not determined.
# TXA2 synthetase = molecular target: T1, TXA2 synthetase (Equus caballus, UniProt A0A9L0T8T9); assay: Inhibition of TXA2 synthetase: thromboxane (thromboxane B2) produced from labelled arachidonic acid by homogenised horse platelets; format: biochemical; details: horse platelet homogenate, 100 mM Tris buffer pH 7.4, 5 min preincubation at ambient temperature, 3 min at 37° C. with arachidonic acid
# T1 construct: labelled arachidonic acid as substrate, thromboxane B2 measured by TLC
# T1 sequence (A0A9L0T8T9 2-534): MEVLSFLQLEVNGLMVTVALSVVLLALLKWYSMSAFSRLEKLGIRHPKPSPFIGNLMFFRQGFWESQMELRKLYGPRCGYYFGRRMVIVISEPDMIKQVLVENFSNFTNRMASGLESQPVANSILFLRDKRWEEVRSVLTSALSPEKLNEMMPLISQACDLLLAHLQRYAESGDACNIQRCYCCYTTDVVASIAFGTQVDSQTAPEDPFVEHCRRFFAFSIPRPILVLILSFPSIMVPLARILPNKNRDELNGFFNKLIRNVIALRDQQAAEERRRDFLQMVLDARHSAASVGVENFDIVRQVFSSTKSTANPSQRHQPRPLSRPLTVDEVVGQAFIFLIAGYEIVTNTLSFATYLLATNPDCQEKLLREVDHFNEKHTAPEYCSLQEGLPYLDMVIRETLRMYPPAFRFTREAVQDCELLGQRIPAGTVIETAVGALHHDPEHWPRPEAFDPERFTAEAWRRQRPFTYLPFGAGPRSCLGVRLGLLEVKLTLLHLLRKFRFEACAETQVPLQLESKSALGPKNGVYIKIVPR
# Description: as §1
# The concentration of active compound to reduce the enzyme activity by 50% (ED50) was established.
# serum cholesterol = details: U.K. Pat. No. 1 364 312; Biochem. Pharmacol., 24, 1902-1903, 1975; cited from earlier work
# [2] = read-out: ED50 (concentration of active compound to reduce the enzyme activity by 50%) (converted)
IC50 (TXA2 synthetase; [2]) [µM],SMILES,inhibition of the enzymic conversion of the endoperoxides to thromboxane A2 [1],"Selectivity (PGE, PGF and PGD)",lowering serum cholesterol levels (serum cholesterol),IC50 (TXA2 synthetase; read-out: ED50 (concentration of active compound to reduce the enzyme activity by 50%)) [µM]
–,CCCCCCCCCCCCn1ccnc1 [1-n-dodecylimidazole],–,–,capable of lowering serum cholesterol levels,–
< 69.3,"CC1(C)C(=CCn2ccnc2)C2CCC1C2 (centres unmarked) [15 (b), 1-[2-(3,3-Dimethylbicyclo[2.2.1]heptan-2-ylidene)ethyl]imidazole]",–,–,–,–
< 57.4,"c1cn(CC2C3CC4C(C3)C24)cn1 (centres unmarked) [15 (c), 1-(Tricyclo[2.2.1.0^3,5]heptan-2-ylmethyl)imidazole]",–,+++,–,–
19.7,"CC1(C)C2CCC(CCn3ccnc3)C1C2 (centres unmarked) [Example 1, 1-[2-(6,6-dimethylbicyclo[3.1.1]heptan-2-yl)ethyl]imidazole]",–,+++,–,–
16.2,"CC1(C)C2CC=C(CCn3ccnc3)C1C2 (centres unmarked) [Example 2, 1-[2-(6,6-Dimethylbicyclo[3.1.1]hept-2-en-2-yl)ethyl]imidazole]",–,+++,–,–
57.4,"C1=CC2CC1CC2Cn1ccnc1 (centres unmarked) [Example 3, 1-(Bicyclo[2.2.1]hept-5-en-2-ylmethyl)imidazole]",–,+++,–,–
28.4,"c1cn(CC2CC3CCC2C3)cn1 (centres unmarked) [Example 4, 1-(Bicyclo[2.2.1]heptan-2-ylmethyl)imidazole]",–,+++,–,–
74.1,"CC1(C)C2CC=C(Cn3ccnc3)C1C2 (centres unmarked) [Example 7, 1-(6,6-Dimethylbicyclo[3.1.1]hept-2-en-2-ylmethyl)imidazole]",–,+++,–,–
24.5,"CC1(C)C2CCC(Cn3ccnc3)C1C2 (centres unmarked) [Example 8, 1-(6,6-Dimethylbicyclo[3.1.1]heptan-2-ylmethyl)imidazole]",–,+++,–,–
65.1,"c1cn(CCC23CC4CC(CC(C4)C2)C3)cn1 [Example 9, 1-[2-(Adamantan-1-yl)ethyl]imidazole]",–,++++,–,–
> 225,"c1cn(CC2COC3(CCCCC3)O2)cn1 (centres unmarked) [Example 10, 1-(1,4-Dioxaspiro[4.5]decan-2-ylmethyl)imidazole]",–,–,–,–
290,"c1cn(C2CC3CCC2C3)cn1 (centres unmarked) [Example 11, 1-(Bicyclo[2.2.1]heptan-2-yl)imidazole]",–,–,–,–
89.2,"C1=CC2CC1CC2CC(C1CC2C=CC1C2)n1ccnc1 (centres unmarked) [Example 13, 1-{1,2-[Bis-(bicyclo[2.2.1]hept-5-en-2-yl)]ethyl}imidazole]",–,++,–,–
–,c1c[nH]cn1 [Imidazole],some degree of inhibition,–,–,≥ 7340

SMILES,IC50 (TXA2 synthetase; [2]) [µM],inhibition of the enzymic conversion of the endoperoxides to thromboxane A2 [1],"Selectivity (PGE, PGF and PGD)",lowering serum cholesterol levels (serum cholesterol),IC50 (TXA2 synthetase; read-out: ED50 (concentration of active compound to reduce the enzyme activity by 50%)) [µM]
"Cn1ccnc1 [1-Methylimidazole, reference compound]",≥ 2440,some degree of inhibition,++,–,–
"c1cn(CC2CN3CCC2CC3)cn1 (centres unmarked) [Example 12, 1-(1-Azabicyclo[2.2.2]octan-3-ylmethyl)imidazole]",157,–,++,–,–
